Reference: patent publication US7541020B2, “Aminoalkyl glucosaminide phosphate compounds and their use as adjuvants and immunoeffectors” (priority 1997, dated 2009)
Read-outs that look alike come from different tables or passages of the source.

Experiments:
influenza A/HK/68 [1] = system: influenza A/HK/68; parameters: species or system ICR mice; details: mouse, in vivo
[2] = system: hepatitis B surface antigen (HBsAg); details: for % Cytotoxicity (d16, post 2°): HBsAg + 10 μg AGP-AF intranasally; for % Cytotoxicity (d8, post 3°): intranasal HBsAg + 10 μg AGP-AF
[3] = system: hepatitis B surface antigen (HBsAg); assay: Serum anti-HBsAg antibody titers after intranasal HBsAg + AGP-AF (ELISA); type: in vivo, BALB/c mice; details: for Anti HBsAg Titer^−1 IgG1 / Anti HBsAg Titer^−1 IgG2a: K = 10^3
[4] = system: hepatitis B surface antigen (HBsAg); assay: Vaginal wash anti-HBsAg antibody after intranasal HBsAg + AGP-AF; type: in vivo, BALB/c mice; details: 10 days after the booster immunization; intranasal HBsAg + 10 μg AGP-AF
From the text: Vaginal samples were collected 10 days after the booster immunization and assayed for anti-HBsAg antibody.

influenza A/HK/68 [5] = type: in vivo, ICR mice; details: mouse, in vivo
E.G7 (OVA) cells = details: s.c. 25 μg OVA in AGP preparation, spleen cells 21 days later
[6] = Fever response in rabbits (pyrogenicity); type: in vivo; details: 10 ug/kg; cumulative rise ≥1.5 degree in three rabbits is considered pyrogenic
Method: The AGP compounds were also evaluated for their tendency to induce a fever response in rabbits. Each compound was formulated in 10% (v/v) ethanol/water solution at 100 mg/ml, then diluted with D5W to the desired concentration. The material was injected at 3 ml/kg body weight into 3 rabbits. The rise in core temperature of the rabbits was recorded.

tetanus toxoid [7] = details: mouse, in vivo, sc
ovalbumin = assay: Stimulation of antiovalbumin antibody production; type: in vivo, BDF1 female mice; details: 50 μg AGP + 50 μg ovalbumin; second immunization day 21; bled 14 days after second injection
Method: BDF1 female mice (8 per group) were immunized with 0.2 ml of emulsions containing 50 μg of the AGPs +50 μg of ovalbumin. A second immunization was administered 21 days post primary. Each mouse was bled 14 days after the second injection.

influenza A/HK/68 [8] = details: mouse, in vivo
tetanus toxoid [9] = system: tetanus toxoid; parameters: species or system BFD1 (C57B1/6X DBA/2) female mice; details: mouse, in vivo
[10] = day 22 post 2°, HBsAg + 10 μg AGP-AF intranasally
[11] = serum, day 21 post 3°, intranasal HBsAg + 10 μg AGP-AF

3-Hydroxy-(S)-2-[(R)-3-decanoyloxytetradecanoylamino]propyl 2-Deoxy-4-O-phosphono-2-[(R)-3-decanoyloxytetradecanoylamino]-3-O-[(R)-3-decanoyloxytetradecanoyl]-β-D-glucopyranoside Triethylammonium Salt [B5]
IgG Titer-1 post 1° (influenza A/HK/68 [1]): 1600 | IgG Titer-1 post 2° (influenza A/HK/68 [1]): >102,400 | Percent Survival post 1° (influenza A/HK/68 [1]): 60% | Percent Survival post 2° (influenza A/HK/68 [1]): 90% | % Cytotoxicity (d16, post 2°) ([2]; E/T 6.25:1): 11% | % Cytotoxicity (d8, post 3°) ([2]; E/T 6.25:1): 12% | % Cytotoxicity (d16, post 2°) ([2]; E/T 12.5:1): 20% | % Cytotoxicity (d8, post 3°) ([2]; E/T 12.5:1): 19% | % Cytotoxicity (d16, post 2°) ([2]; E/T 25:1): 30% | % Cytotoxicity (d8, post 3°) ([2]; E/T 25:1): 30% | % Cytotoxicity (d16, post 2°) ([2]; E/T 50:1): 43% | % Cytotoxicity (d8, post 3°) ([2]; E/T 50:1): 44% | Anti HBsAg Titer^−1 IgA [3, 10]: 3,200 | Anti HBsAg Titer^−1 IgG1 [3, 10]: 256K | Anti HBsAg Titer^−1 IgG2a [3, 10]: 500K | Anti HBsAg Titer^−1 IgG1 [3, 11]: 500K | Anti HBsAg Titer^−1 IgG2a [3, 11]: 1000K | Anti HBsAg Titer^−1 IgA [3, 11]: 12,800 | Vaginal Wash Anti-HBsAg Titer^−1 IgA [4]: 1600 | Vaginal Wash Anti-HBsAg Titer^−1 IgG [4]: 1600 | Percent Survival (influenza A/HK/68 [5]): 44% | Titer−1 IgG1 (influenza A/HK/68 [5]): 200 | Titer−1 IgG2a (influenza A/HK/68 [5]): 50 | Titer−1 IgG2b (influenza A/HK/68 [5]): 400 | Titer−1 Total IgG (influenza A/HK/68 [5]): 800 | % Cytotoxicity (E.G7 (OVA) cells; E:T 12.5:1): 11% | % Cytotoxicity (E.G7 (OVA) cells; E:T 25:1): 18% | % Cytotoxicity (E.G7 (OVA) cells; E:T 50:1): 28% | PYROGENICITY Total Rise ° C., 3 rabbits [6]: 4.1 °C

3-Hydroxy-(S)-2-[(R)-3-undecanoyloxytetradecanoylamino]propyl 2-Deoxy-4-O-phosphono-2-[(R)-3-undecanoyloxytetradecanoylamino]-3-O-[(R)-3-undecanoyloxytetradecanoyl]-β-D-glucopyranoside Triethylammonium Salt [B4]
IgG Titer-1 post 1° (influenza A/HK/68 [1]): 800 | IgG Titer-1 post 2° (influenza A/HK/68 [1]): 25,600 | Percent Survival post 1° (influenza A/HK/68 [1]): 50% | Percent Survival post 2° (influenza A/HK/68 [1]): 70% | % Cytotoxicity (d16, post 2°) ([2]; E/T 6.25:1): 7% | % Cytotoxicity (d8, post 3°) ([2]; E/T 6.25:1): 5% | % Cytotoxicity (d16, post 2°) ([2]; E/T 12.5:1): 9% | % Cytotoxicity (d8, post 3°) ([2]; E/T 12.5:1): 9% | % Cytotoxicity (d16, post 2°) ([2]; E/T 25:1): 17% | % Cytotoxicity (d8, post 3°) ([2]; E/T 25:1): 15% | % Cytotoxicity (d16, post 2°) ([2]; E/T 50:1): 28% | % Cytotoxicity (d8, post 3°) ([2]; E/T 50:1): 23% | Anti HBsAg Titer^−1 IgA [3, 10]: 6,400 | Anti HBsAg Titer^−1 IgG1 [3, 10]: 500K | Anti HBsAg Titer^−1 IgG2a [3, 10]: 1000K | Anti HBsAg Titer^−1 IgG1 [3, 11]: 1000K | Anti HBsAg Titer^−1 IgG2a [3, 11]: 2000K | Anti HBsAg Titer^−1 IgA [3, 11]: 25,600 | Vaginal Wash Anti-HBsAg Titer^−1 IgA [4]: 6400 | Vaginal Wash Anti-HBsAg Titer^−1 IgG [4]: 1600 | Percent Survival (influenza A/HK/68 [5]): 60% | Titer−1 IgG1 (influenza A/HK/68 [5]): 400 | Titer−1 IgG2a (influenza A/HK/68 [5]): 100 | Titer−1 IgG2b (influenza A/HK/68 [5]): 1600 | Titer−1 Total IgG (influenza A/HK/68 [5]): 3200 | % Cytotoxicity (E.G7 (OVA) cells; E:T 12.5:1): 60% | % Cytotoxicity (E.G7 (OVA) cells; E:T 25:1): 66% | % Cytotoxicity (E.G7 (OVA) cells; E:T 50:1): 72% | PYROGENICITY Total Rise ° C., 3 rabbits [6]: 3.4 °C

3-[(R)-3-Tetradecanoyloxytetradecanoylamino]propyl 2-Deoxy-4-O-phosphono-3-O-[(R)-3-tetradecanoyoxytetradecanoyl]-2-[(R)-3-tetradecanoyloxytetradecanoylamino])-β-D-glucopyranoside Triethylammonium Salt [B21]
Anti-tetanus toxoid IgG1 T/C (tetanus toxoid [7]): 2.23 | Anti-tetanus toxoid IgG1 Titer (tetanus toxoid [7]): 480,000 | Anti-tetanus toxoid IgG2a T/C (tetanus toxoid [7]): 5.83 | Anti-tetanus toxoid IgG2a Titer (tetanus toxoid [7]): 29,600 | Anti-tetanus toxoid IgG2b T/C (tetanus toxoid [7]): 6.07 | Anti-tetanus toxoid IgG2b Titer (tetanus toxoid [7]): 174,400 | Anti-tetanus toxoid IgM T/C (tetanus toxoid [7]): 5.50 | Anti-tetanus toxoid IgM Titer (tetanus toxoid [7]): 8,800 | Anti-tetanus toxoid Total IgG T/C (tetanus toxoid [7]): 4.71 | Anti-tetanus toxoid Total IgG Titer (tetanus toxoid [7]): 30,400 | Anti-ovalbumin IgG1 T/C (ovalbumin): 0.6 | Anti-ovalbumin IgG1 Titer (ovalbumin): 1000 | Anti-ovalbumin IgG2a T/C (ovalbumin): 0.1 | Anti-ovalbumin IgG2a Titer (ovalbumin): 25 | Anti-ovalbumin IgG2b T/C (ovalbumin): 0.8 | Anti-ovalbumin IgG2b Titer (ovalbumin): 200 | Anti-ovalbumin IgM T/C (ovalbumin): 1.3 | Anti-ovalbumin IgM Titer (ovalbumin): 250 | Anti-ovalbumin Total Ig T/C (ovalbumin): 0.5 | Anti-ovalbumin Total Ig Titer (ovalbumin): 113 | Percent Survival (influenza A/HK/68 [8]): 40% | Titer−1 IgG1 (influenza A/HK/68 [8]): 800 | Titer−1 IgG2a (influenza A/HK/68 [8]): 100 | Titer−1 IgG2b (influenza A/HK/68 [8]): 1600 | Titer−1 Total IgG (influenza A/HK/68 [8]): 6400

CCCCCCCCCCCCCC(=O)O[C@H](CCCCCCCCCCC)CC(=O)N[C@H]1[C@H](OCCN(CC(=O)O)C(=O)C[C@@H](CCCCCCCCCCC)OC(=O)CCCCCCCCCCCCC)O[C@H](CO)[C@@H](OP(=O)(O)O)[C@@H]1OC(=O)C[C@@H](CCCCCCCCCCC)OC(=O)CCCCCCCCCCCCC.CCN(CC)CC [B27, N-(Carboxymethyl)-N-[(R)-3-tetradecanoyloxytetradecanoyl]-2-aminoethyl 2-Deoxy-4-O-phophono-2-[(R)-3-tetradecanoyloxytetradecanoylamino]-3-O-[(R)-3-tetradecanoyloxytetradecanoyl]-β-d-glucopyranoside Triethylammonium Salt]
Anti-ovalbumin IgG1 T/C (ovalbumin): 0.8 | Anti-ovalbumin IgG1 Titer (ovalbumin): 1275 | Anti-ovalbumin IgG2a T/C (ovalbumin): 0.1 | Anti-ovalbumin IgG2a Titer (ovalbumin): 38 | Anti-ovalbumin IgG2b T/C (ovalbumin): 0.5 | Anti-ovalbumin IgG2b Titer (ovalbumin): 113 | Anti-ovalbumin IgM T/C (ovalbumin): 1.6 | Anti-ovalbumin IgM Titer (ovalbumin): 300 | Anti-ovalbumin Total Ig T/C (ovalbumin): 0.6 | Anti-ovalbumin Total Ig Titer (ovalbumin): 138 | IgG1 T/C Ratio (tetanus toxoid [9]): 1.6 | IgG1 Titer (tetanus toxoid [9]): 10,400 | IgG2a T/C Ratio (tetanus toxoid [9]): 12.0 | IgG2a Titer (tetanus toxoid [9]): 900 | IgG2b T/C Ratio (tetanus toxoid [9]): 11.6 | IgG2b Titer (tetanus toxoid [9]): 9,000 | IgM T/C Ratio (tetanus toxoid [9]): 4.0 | IgM Titer (tetanus toxoid [9]): 11,200 | Total Ig T/C Ratio (tetanus toxoid [9]): 3.2 | Total Ig Titer (tetanus toxoid [9]): 6,800 | % Cytotoxicity (E.G7 (OVA) cells; E:T 12.5:1): 5% | % Cytotoxicity (E.G7 (OVA) cells; E:T 25:1): 9% | % Cytotoxicity (E.G7 (OVA) cells; E:T 50:1): 17% | PYROGENICITY Total Rise ° C., 3 rabbits [6]: 3.9 °C
